In one series the target is T1, GLP-1R (Homo sapiens, UniProt P43220).
T1 construct: host or cells: CRE-bla CHO-K1
The series is described as follows: EC20 GLP-1(9-36) PAM cAMP assay: dose response of compound in the presence of fixed concentration of GLP-1(9-36). In kind it is cell-based. To be noted: compound dose response with fixed GLP-1(9-36), GLP-1R CRE-bla CHO-K1 cells; for EC20 GLP-1 (9-36) PAM Activity max cAMP: Emax as total cAMP; for EC50: cAMP. Here is the method:
EC20GLP-1(9-36) PAM cAMP Assay: Dose Response of Compound in the Presence of Fixed Concentration of GLP-1 (9-36)
GLP-1R CRE-bla CHO-K1 cells were seeded into 384-well white flat bottom plates at 10,000 cells/well/20 μL growth medium (DMEM-High glucose, 10% dialyzed FBS, 0.1 mM NEAA, 25 mM Hepes, 100 U/mL penicillin/100 μg/mL streptomycin, 5 μg/mL Blasticidin, 600 μg/mL Hygromycin) and incubated for 18 h at 37° C. in 5% CO2. Growth medium was replaced with 12 μL assay buffer (Hanks Balanced Salt solution, 10 mM Hepes, 0.1% BSA, pH7.4). A 5× compound dose response curve (12-point) was generated in assay buffer containing 1.5 mM IBMX, 12.5% DMSO. GLP-1(9-36) was diluted to 4.2 μM in assay buffer containing 1.5 mM IBMX and 12.5% DMSO. The 5× compound dose response was added (3 μL), followed by 0.5 μL of GLP-1(9-36) and cells were incubated for 30 min at 37° C. Direct detection of cAMP was carried out using DiscoveRx HitHunter cAMP kit according to manufacturer's instructions and luminescence was read using a SpectraMax M5 plate reader. Luminescence was converted to total cAMP using a cAMP standard curve and data was analyzed by non-linear regression to determine the EC50 and Emax.

Series [1] can be described thus: Determination of absolute oral bioavailability in rats. The format is in vivo. To be noted: rat, plasma, fasted female Sprague-Dawley rats, intravenous 1 mg/kg. Here is the method:
Determination of Absolute Oral Bioavailability in Rats
All pharmacokinetic studies were conducted in fasted female Sprague-Dawely rats (Simonsen Laboratories or Harlan Laboratories). Rats were housed in an ALAAC accredited facility and the research was approved by the facilities Institutional Animal Care and Use Committee (IACUC). The animals were acclimated to the laboratory for at least 48 h prior to initiation of experiments.
Compounds were formulated in 20% hydroxy beta cyclodextrin or 20% captisol and 80%-25 mM NaPO4 Buffer (pH 8) (intravenous infusion), or 5% DMSO/5% Tween20 and 90% water (oral gavage or intraperitoneal injection). The concentration of the dosing solutions was verified by HPLC-UV. For intravenous dosing, compounds were administered into the tail vein to manually restrained animals (n=3 rats/compound). The intravenous dose was 1 mg/kg. Oral dosing was by gavage using a standard stainless steel gavage needle (n=2-4 rats/compound). The oral solution dose was 5 mg/kg. For compounds 1 and 3, the oral solution dose was 30 mg/kg. For both routes of administration, blood was collected into BD Microtainer tubes with Dipotassium EDTA as the anticoagulantant eight time-points after dosing with the final sample drawn 24 h post dose Plasma was separated by centrifugation and transferred to a polypropylene 96-well plate and kept at 4° C. until analysis.
Proteins were precipitated by adding 150 μL acetonitrile to 50 μL of plasma. Plates were mixed for 1 min on a plate shaker to facilitate protein precipitation and then centrifuged at 3,000 rpm for 10 min to pellet protein. The supernatant was transferred to a clean plate and centrifuged at 3,000 rpm for 10 min to pellet any remaining solid material prior to LC/MS/MS analysis. Calibration curve standards were prepared by spiking 54 compound stock in DMSO into rat plasma from untreated animals. An eight point standard curve spanning a range of 0.14 nM to 300 nM was included with each bio-analytical run. The standards were processed identically to the rat pharmacokinetic samples.
Concentrations in the rat pharmacokinetic samples were determined using a standardized HPLC-LC/MS/MS method relative to the eight point standard curve. The system consisted of a Leap CTC Pal injector, Agilent 1200 HPLC with binary pump coupled with an Applied Biosystems 4000 QTrap. Compounds were chromatographed on a Phenomenex Luna C8(2) 20×2 mm 2 um Mercury Cartridge with Security Guard. A gradient method was used with mobile phase A consisting of 0.1% formic acid in water and mobile phase B consisting of 0.1% formic acid in acetonitrile at flow rates varying from 0.7 to 0.8 mL/min. Ions were generated in positive ionization mode using an electrospray ionization (ESI) interface. Multiple reaction monitoring (MRM) methods were developed specific to each compound. The heated nebulizer was set at 500° C. with a nebulizer current of 5.1 μA. Collision energies used to generate daughter ions ranged between 29 and 80 V. Peak area obtained from MRM of the mass transitions specific for each compound were used for quantification. The limit of quantification of the method was typically 1.2 nM. Data were collected and analyzed using Analyst software version 1.5.1. Blood concentration versus time data were analyzed using non-compartmental methods (WinNonlin Phoenix version 6.2; model 200 for oral or intraperitoneal dosing and model 202 for intravenous infusion). Absolute oral bioavailability (%) was calculated using the following expression: (Oral AUC×IV Dose)/(IV AUC×Oral Dose)×100.

[2] abbreviates: oral solution 30 mg/kg (compounds 1 and 3).

The text below walks through data of patent publication US9700543B2, “GLP-1 receptor stabilizers and modulators” (Celgene International II SÀRL, priority 2011, dated 2017).

T1 sequence (P43220 24-463): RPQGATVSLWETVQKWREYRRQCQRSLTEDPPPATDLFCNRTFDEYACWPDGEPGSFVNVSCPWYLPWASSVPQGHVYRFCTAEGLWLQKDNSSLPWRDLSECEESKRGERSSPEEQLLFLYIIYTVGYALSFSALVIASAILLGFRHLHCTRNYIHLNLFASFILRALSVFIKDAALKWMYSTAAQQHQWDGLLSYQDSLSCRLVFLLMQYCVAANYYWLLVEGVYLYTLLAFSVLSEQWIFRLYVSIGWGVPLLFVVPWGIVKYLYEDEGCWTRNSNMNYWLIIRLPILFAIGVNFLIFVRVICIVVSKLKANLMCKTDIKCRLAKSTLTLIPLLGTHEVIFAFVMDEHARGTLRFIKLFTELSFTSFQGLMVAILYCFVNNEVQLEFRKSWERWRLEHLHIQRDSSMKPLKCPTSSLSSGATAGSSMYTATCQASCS
T1 sequence (P01275 100-127 partner limits assumed): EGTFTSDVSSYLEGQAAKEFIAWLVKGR

On to `CCCCCCCOc1ccc(C(=O)Oc2ccc(CN(CC(=O)O)C(=O)c3ccc(NC(=O)Cc4ccc(OC)cc4)cc3)cc2)cc1` [Compound 1, 2-(N-(4-((4-(heptyloxy)benzoyl)oxy)benzyl)-4-(2-(4-methoxyphenyl)acetamido)benzamido)-acetic acid], for which, on GLP-1R, the “EC20 GLP-1 (9-36) PAM Activity max cAMP” value is on record as 240 nM and the EC50 came out at 3600 nM. Besides, the bioavailability in series [1] (setting [2]) is under 1%.

As for `CCCCCCCOc1ccc(C(=O)Oc2ccc(CN(CC(=O)O)C(=O)c3ccc(NC(=O)Cc4ccc(OC)cc4C(F)(F)F)cc3)cc2)cc1` [Compound 3, 2-(N-(4-((4-(heptyloxy)benzoyl)oxy)benzyl)-4-(2-(4-methoxy-2-(trifluoromethyl)phenyl)-acetamido)benzamido)acetic acid], on GLP-1R, the “EC20 GLP-1 (9-36) PAM Activity max cAMP” value was 284 nM and the EC50 was determined as 1300 nM. The bioavailability in series [1] (setting [2]) is under 1%.

In the case of `CCCCCCCOc1ccc(C(=O)Oc2ccc(CN(CC(=O)O)C(=O)c3ccc(NC(=O)Cc4ccc(C)c(OC)c4)cc3)cc2)cc1` [Compound 4, 2-(N-(4-((4-(heptyloxy)benzoyl)oxy)benzyl)-4-(2-(3-methoxy-4-methylphenyl)-acetamido)benzamido)acetic acid], on GLP-1R, the “EC20 GLP-1 (9-36) PAM Activity max cAMP” value is listed as 371 nM and the 50% effective concentration (EC50) came out at 2400 nM.

Take `CCCCCCCCCOc1ccc(C(=O)Oc2ccc(CN(CC(=O)O)C(=O)c3ccc(NC(=O)Cc4ccc(OC)cc4)cc3)cc2)cc1` [Compound 16, 2-(4-(2-(4-methoxyphenyl)acetamido)-N-(4-((4-(nonyloxy)benzoyl)oxy)benzyl)benzamido) acetic acid]: at GLP-1R, the “EC20 GLP-1 (9-36) PAM Activity max cAMP” value came to 293 nM and the 50% effective concentration (EC50) amounted to 1200 nM.

As for `CCCCCCCCOc1ccc(C(=O)Oc2ccc(CN(CC(=O)O)C(=O)c3ccc(NC(=O)Cc4ccc(OC)cc4)cc3)cc2)cc1` [Compound 17, 2-(4-(2-(4-methoxyphenyl)acetamido)-N-(4-((4-(octyloxy)benzoyl)oxy)benzyl)benzamido) acetic acid], on GLP-1R, the “EC20 GLP-1 (9-36) PAM Activity max cAMP” value came out at 281 nM and the EC50 was 1500 nM.

As to `CCCCCCOc1ccc(C(=O)Oc2ccc(CN(CC(=O)O)C(=O)c3ccc(NC(=O)Cc4ccc(OC)cc4)cc3)cc2)cc1` [Compound 18, 2-(N-(4-((4-(hexyloxy)benzoyl)oxy)benzyl)-4-(2-(4-methoxyphenyl)acetamido)benzamido) acetic acid], on GLP-1R, the “EC20 GLP-1 (9-36) PAM Activity max cAMP” value came to 182 nM and the EC50 was 3100 nM.

As to `COc1ccc(CC(=O)Nc2ccc(C(=O)N(CC(=O)O)Cc3ccc(OC(=O)c4ccc(C5CCCCC5)cc4)cc3)cc2)cc1` [Compound 39, 2-(N-(4-((4-cyclohexylbenzoyl)oxy)benzyl)-4-(2-(4-methoxyphenyl)acetamido)benzamido) acetic acid], on GLP-1R, the “EC20 GLP-1 (9-36) PAM Activity max cAMP” value is reported as 273 nM and the 50% effective concentration (EC50) was 2500 nM.

In the case of `CCCCCCCCc1ccc(C(=O)Oc2ccc(CN(CC(=O)O)C(=O)c3ccc(NC(=O)Cc4ccc(OC)cc4)cc3)cc2)cc1` [Compound 40, 2-(4-(2-(4-methoxyphenyl)acetamido)-N-(4-((4-octylbenzoyl)oxy)benzyl)benzamido)acetic acid], at GLP-1R, the “EC20 GLP-1 (9-36) PAM Activity max cAMP” value came to 397 nM and the 50% effective concentration (EC50) turned out to be 2100 nM.

Consider `COc1ccc(CC(=O)Nc2ccc(C(=O)N(CC(=O)O)Cc3ccc(OC(=O)c4ccc(OCCC(C)C)cc4)cc3)cc2)cc1` [Compound 46, 2-(N-(4-((4-(isopentyloxy)benzoyl)oxy)benzyl)-4-(2-(4-methoxyphenyl)acetamido)benzamido) acetic acid], for which, on GLP-1R, the “EC20 GLP-1 (9-36) PAM Activity max cAMP” value is recorded as 252 nM and the EC50 is 7000 nM.

With `COc1ccc(CC(=O)Nc2ccc(C(=O)N(CC(=O)O)Cc3ccc(OC(=O)c4ccc(-c5ccc(C)cc5)cc4)cc3)cc2)c(C(F)(F)F)c1` [Compound 192, 2-(4-(2-(4-methoxy-2-(trifluoromethyl)phenyl)acetamido)-N-(4-((4′-methyl-[1,1′-biphenyl]-4-carbonyl)oxy)benzyl)benzamido)acetic acid], on GLP-1R, the “EC20 GLP-1 (9-36) PAM Activity max cAMP” value was 248 nM and the concentration for a half-maximal effect (EC50) was 1300 nM.

With `COc1ccc(CC(=O)Nc2ccc(C(=O)N(CC(=O)O)Cc3ccc(OC(=O)c4ccc(-c5ccc(C)cc5)cc4)cc3)c(OC)c2)c(C(F)(F)F)c1` [Compound 314, 2-(2-methoxy-4-(2-(4-methoxy-2-(trifluoromethyl)phenyl)acetamido)-N-(4-((4′-methyl-[1,1′-biphenyl]-4-carbonyl)oxy)benzyl)benzamido)acetic acid], on GLP-1R, the “EC20 GLP-1 (9-36) PAM Activity max cAMP” value was found to be 307 nM and the EC50 was 500 nM.

For the molecule `COc1ccc(CC(=O)Nc2ccc(C(=O)N(CC(=O)O)Cc3ccc(-c4noc(-c5ccc(-c6ccc(C)cc6)cc5)n4)cc3)cc2)c(C(F)(F)F)c1` [Compound 354, 2-(4-(2-(4-methoxy-2-(trifluoromethyl)phenyl)acetamido)-N-(4-(5-(4′-methyl-[1,1′-biphenyl]-4-yl)-1,2,4-oxadiazol-3-yl)benzyl)benzamido)acetic acid], on GLP-1R, the “EC20 GLP-1 (9-36) PAM Activity max cAMP” value was 297 nM and the EC50 was 300 nM. In addition, in series [1] (oral solution 5 mg/kg), the bioavailability was found to be 2%.

Turning to `COc1ccc(CC(=O)Nc2ccc(C(=O)N(CC(=O)O)Cc3ccc(-c4noc(-c5ccc(C)cc5)n4)cc3)cc2)c(C(F)(F)F)c1` [Compound 355, 2-(4-(2-(4-methoxy-2-(trifluoromethyl)phenyl)acetamido)-N-(4-(5-(p-tolyl)-1,2,4-oxadiazol-3-yl)benzyl)benzamido)acetic acid], at GLP-1R, the “EC20 GLP-1 (9-36) PAM Activity max cAMP” value was found to be 266 nM and the 50% effective concentration (EC50) is 2900 nM. Besides, the bioavailability in series [1] (oral solution 5 mg/kg) worked out at 2%.

Turning to `COc1ccc(CC(=O)Nc2ccc(C(=O)N(CC(=O)O)Cc3ccc(-c4nc(-c5ccc(-c6ccc(C)cc6)cc5)co4)cc3)cc2)c(C(F)(F)F)c1` [Compound 360, 2-(4-(2-(4-methoxy-2-(trifluoromethyl)phenyl)acetamido)-N-(4-(4-(4′-methyl-[1,1′-biphenyl]-4-yl)oxazol-2-yl)benzyl)benzamido)acetic acid], at GLP-1R, the “EC20 GLP-1 (9-36) PAM Activity max cAMP” value was determined as 290 nM and the 50% effective concentration (EC50) turned out to be 500 nM. This molecule also registered a bioavailability in series [1] (oral solution 5 mg/kg) of 2%.

For `COc1ccc(CC(=O)Nc2ccc(C(=O)N(CC(=O)O)Cc3ccc(-c4n[nH]c(-c5ccc(-c6ccc(C)cc6)cc5)n4)cc3)cc2)c(C(F)(F)F)c1` [Compound 361, 2-(4-(2-(4-methoxy-2-(trifluoromethyl)phenyl)acetamido)-N-(4-(5-(4′-methyl-[1,1′-biphenyl]-4-yl)-1H-1,2,4-triazol-3-yl)benzyl)benzamido)acetic acid], at GLP-1R, the “EC20 GLP-1 (9-36) PAM Activity max cAMP” value was 234 nM and the EC50 came out at 2700 nM.
